Data published in patent US20230212202A1, “TREATMENT OF MGMT DEFICIENT CANCER WITH 2-FLUOROETHYL-SUBSTITUTED NITROSOUREAS AND OTHER COMPOUNDS” (YALE UNIVERSITY, priority 2021, published 2023).

How the values were obtained:
[1] = system: LN229 MGMT-/MMR+ and MGMT-/MMR- flank tumors; assay: Flank tumor second study: regimens, schedules and routes; format: in vivo, mouse; conditions: 5, 15, 25 mg/kg; MWF × 3 weeks, M-F × 1 week; PO, IP
Source text: In a second study, mice were randomized and administered either KL-50 (4a) or vehicle (10% cyclodextrin) by oral gavage or intraperitoneal injection on either M-F × 1 or MWF × 3 cycles at 5, 15, or 25 mgs/kg. Caliper measurements were obtained during the dosing period and at least two weeks following treatment. Mice were euthanized if body weight loss exceeded 20% or if tumor volume increased to greater than 2000 mm^3.

[2] = system: LN229 MGMT-/MMR- flank tumors; assay: Xenograft flank tumor model; format: in vivo, mouse
[3] = system: LN229 MGMT+/- cells with shRNA targeting MSH6, MLH1, PMS2, or MSH3; assay: Short-term viability assay, MMR shRNA lines; format: cell-based, human; conditions: shMSH6, shMLH1, shPMS2, shMSH3
[4] = system: BJ fibroblast cells
Description: Short-term Cell Viability Assay. Cells were seeded in 96-well plates at 1000 or 2000 cells/well and allowed to adhere at 23° C. for 60 min and then incubated overnight at 37° C. […] Cells were imaged on a Cytation 3 imaging reader (BioTek) and quantified using CellProfiler software.

[5] = system: linearized pUC19 plasmid DNA; assay: In vitro DNA cross-linking assay; format: biochemical; conditions: 100 µM, 6-36 hours
Description: Plasmid Linearization Assay. To set up the linearization reactions, 20 units of EcoRI-HF (New England Biolabs) was mixed with 20 µg 2686 bp pUC19 vector DNA in CutSmart buffer (New England Biolabs), pH 7.9, in a total volume of 1000 µL for 30 min at 37° C. The CutSmart buffer contains 50 mM potassium acetate, 20 mM Tris acetate, 10 mM magnesium acetate, and 100 µg/mL BSA. The reacted DNA was then purified using PCR cleanup kit and quantified using the NanoDrop One (Thermo Fisher). The DNA was then stored at -20° C. before use in in vitro DNA cross-linking assays or melting temperature analysis.
In Vitro DNA Cross-linking Assays. Linearized pUC19 DNA, prepared as described above, was used for in vitro DNA cross-linking assays. For each condition, 200 ng of linearized pUC19 DNA (15.4 µM base pairs) was incubated with the indicated concentration of drug in 20 µL. Drug stock concentrations were made in DMSO such that each reaction contained a fixed 5% DMSO concentration. Reactions were conducted in 100 mM Tris buffer (pH 7.4). Cisplatin (Sigma) and DMSO vehicle were used as positive and negative controls, respectively. Reactions were conducted between 3-96 h at 37° C. The DNA was stored at -80° C. until electrophoretic analysis. For gel electrophoresis, DNA concentration was preadjusted to 10 ng/µL. […]

[6] = system: DLD1 MSH6-deficient cells; assay: Short-term viability assay with or without O6BG; format: cell-based, human; conditions: with or without O6BG-induced MGMT depletion
Source text: (§1) Short-term Cell Viability Assay.

[7] = system: HCT116 MLH1-/- cells or HCT116 +Chr3 cells; assay: Short-term viability assay with or without O6BG; format: cell-based, human
Source text: as §1

[8] = system: DLD1 BRCA2+/- and BRCA2-/- cells; assay: Short-term viability assay with or without O6BG; format: cell-based, human
[9] = system: LN229 MGMT+/-, MMR+/- cells; assay: Cell cycle analysis; format: cell-based, human; conditions: 20 µM
Description: Cell Cycle Analysis. Cell cycle analysis was performed using integrated Hoechst nucleic acid dye fluorescence intensity as previously described (51). Briefly, integrated Hoechst fluorescence intensity was log2 transformed and histograms from DMSO-treated cells were used to identify the centers of the 2 N and 4 N DNA peaks. These values were used to normalize the 2 N DNA peak to 1 and the 4 N DNA peak to 2. Cells were then classified by normalized log2 DNA content as G1 (0.75-1.25), S (1.25-1.75), or G2 (1.75-2.5) phase cells. The percentage of cells within each phase of the cell cycle was determined for each treatment condition. The three sets of Hoechst-stained cells corresponding to the three separate DNA foci stains were treated as three independent analyses.

[10] = system: LN229 MGMT+/-, MMR+/- cells; assay: Short-term cell viability assay, four isogenic LN229 glioblastoma cell lines; format: cell-based, human
[11] = system: LN229 MGMT-/MMR- cells; assay: Short-term cell viability assay; format: cell-based, human; conditions: Homo sapiens, LN-229
[12] = system: LN229 MGMT-/MMR- intracranial tumors; assay: Intracranial tumor model; format: in vivo, mouse; conditions: 25 mg/kg IP M-F × 1 week
[13] = system: LN229 MGMT-/MMR- cells; assay: IR alkaline comet assay; format: cell-based, human; conditions: 200 µM, 2-24 h
[14] = system: linearized pUC19 plasmid DNA; assay: Melting temperature assay; format: biochemical; conditions: 100 or 500 µM, 3 h

## NC(=O)c1ncn2c(=O)n(CCF)nnc12 [KL-50]
[1]
  efficacy and toxicity across regimens: effective and non-toxic
[2]; 5 mg/kg MWF × 3 weeks, P.O.
  tumor growth: potently suppressed tumor growth
[2]; Kaplan-Meier
  increase in median OS vs TMZ: greater than 5 week
[2]; Kaplan-Meier, 5 mg/kg MWF × 3 weeks
  median OS: greater than 15 weeks
[3]
  activity in MGMT- LN229 cells lacking other MMR proteins: confirmed
[4]
  cytotoxicity in normal human fibroblast cells: no increase in toxicity
[5]
  ICLs in plasmid DNA: possessed ICLs, with delayed rates of formation relative to 12b
[6]
  activity in DLD1 cells: toxic to these cells, but only after O^6BG-induced MGMT depletion
[7]
  activity in HCT116 cells: selective tumor cell killing specifically in the setting of O^6BG-induced MGMT suppression
[8]
  sensitivity of BRCA2-/- cells: BRCA2 loss enhanced the toxicity
[8]; DLD1 isogenic model
  therapeutic index (TI), ratio of IC50 values in MGMT+/BRCA2+ cells compared to MGMT-/BRCA2- cells: ~ 600 fold
[9]; MGMT+/MMR+ cells
  G2 arrest: moderate G2 arrest
[9]; MGMT-/MMR+ cells
  G2 arrest: increasing G2 arrest on progression from 24 to 48 h
[9]; MGMT-/MMR- cells
  G2 arrest: attenuated G2 arrest
[10]
  activity in the four LN229 cell lines: mirrored that of 4b
  rescue of toxicity by ROS scavenger NAC: did not result in rescue
[10]; LN229
  selectivity for MGMT-deficient cells: ~ 25 fold
[11]
  IC50: ~20 µM
[12]
  intracranial tumor growth: effective
[13]; 0 Gy
  DNA damage in unirradiated samples, time course: maximal damage at 2 h
[13]; 10 Gy
  DNA mobility after IR, time course: time-dependent decrease in DNA mobility
[14]
  DNA melting temperature: comparable changes in measured DNA melting temperature
